The subject of this test is C4-2 cells. Nature of the test: Proliferation by BrDU incorporation. Conditions: 25 μM, 48 h of treatment.

Description: LNCaP and C4-2 cells grown on coverslips were incubated for 4 hours with BrdU (100 μM final) at 24 hours and 48 hours following SCD-1 knock-down. Cells were then fixed and permeabilized with cold methanol for 10 min at −20° C. After 3 washes with PBS, DNA was denaturated with 4NHCL for 10 min at RT, and cells were incubated with blocking buffer (PBS-1% BSA). BrDU was then detected with anti-BrDU monoclonal antibody 1:50 (Dako, Carpinteria, Calif.) for 1 hour at 37° C. After 3 washes with PBS, cells were incubated with an FITC-conjugated anti-mouse secondary antibody 1:150 (Jackson Immunoresearch) for 30 min at 37° C., and slides were mounted in mowiol.

Regarding `COc1ccc(Br)c(C(=O)N2CCN(S(=O)(=O)c3c(F)cccc3F)CC2)c1` [Example 14, 1N-[(2-bromo-5-methoxybenzoyl)]-4N-[(2,6-difluorophenyl)sulfonyl]piperazine], the “% Inhibition of proliferation at 25 μM (BrDU) on C4-2” value (“% Inhibition of proliferation” below) was 0%.

With `COc1ccc(Br)c(C(=O)N2CCN(S(=O)(=O)c3ccc(C(C)C)cc3)CC2)c1` [Example 16, 1N-[(2-bromo-5-methoxybenzoyl)]-4N-[(4-isopropylphenyl)sulfonyl]piperazine], the “% Inhibition of proliferation” value is on record as 75.4 ± 10.8%.

Take `COc1ccc(Br)c(C(=O)N2CCN(S(=O)(=O)c3ccc(Br)cc3)CC2)c1` [Example 17, 1N-[(2-bromo-5-methoxybenzoyl)]-4N-[(4-bromophenyl)sulfonyl]piperazine]: the “% Inhibition of proliferation” value came out at 67.6 ± 8.2%.

As for `COc1ccc(S(=O)(=O)N2CCN(C(=O)c3cc(OC)ccc3Br)CC2)cc1` [Example 19, 1N-[(2-bromo-5-methoxybenzoyl)]-4N-[(4-methoxyphenyl)sulfonyl]piperazine], the “% Inhibition of proliferation” value was 22.4 ± 7.7%.

Regarding `COc1ccc(Br)c(C(=O)N2CCN(S(=O)(=O)c3cccs3)CC2)c1` [Example 21, 1N-[(2-bromo-5-methoxybenzoyl)]-4N-[(2-thiophene)sulfonyl]piperazine], the “% Inhibition of proliferation” value is 58.3 ± 19.9%.

Regarding `COc1ccc(Br)c(C(=O)N2CCN(S(=O)(=O)c3ccsc3)CC2)c1` [Example 22, 1N-[(2-bromo-5-methoxybenzoyl)]-4N-[(3-thiophene)sulfonyl]piperazine], the “% Inhibition of proliferation” value amounted to 28 ± 2.6%.

As for `COc1ccc(Br)c(C(=O)N2CCN(S(=O)(=O)c3ccco3)CC2)c1` [Example 23, 1N-[(2-bromo-5-methoxybenzoyl)]-4N-[(2-furan)sulfonyl]piperazine], the “% Inhibition of proliferation” value stood at 48 ± 14%.

With `COc1ccc(Br)c(C(=O)N2CCN(S(=O)(=O)c3ccoc3)CC2)c1` [Example 24, 1N-[(2-bromo-5-methoxybenzoyl)]-4N-[(3-furan)sulfonyl]piperazine], the “% Inhibition of proliferation” value worked out at 28.4 ± 9.8%.

Take `COc1ccc(Br)c(C(=O)N2CCN(S(=O)(=O)c3cn(C)cn3)CC2)c1` [Example 25, 1N-[(2-bromo-5-methoxybenzoyl)]-4N-[(1-methyl-1H-imidazole)sulfonyl]piperazine]: the “% Inhibition of proliferation” value came to 0%.

Regarding `COc1ccc(C(=O)N2CCN(S(=O)(=O)c3ccc(F)cc3F)CC2)cc1Br` [Example 26, 1N-[(3-bromo-4-methoxybenzoyl)]-4-N-[(2,4-difluorophenyl)sulfonyl]piperazine], the “% Inhibition of proliferation” value worked out at 68.2 ± 18.2%.

Regarding `COc1ccc(Br)cc1C(=O)N1CCN(S(=O)(=O)c2ccc(F)cc2F)CC1` [Example 27, 1N-[(2-methoxy-5-bromobenzoyl)]-4-N-[(2,4-difluorophenyl)sulfonyl]piperazine], the “% Inhibition of proliferation” value stood at 26.2 ± 6.2%.

Regarding `COc1c(Br)cccc1C(=O)N1CCN(S(=O)(=O)c2ccc(F)cc2F)CC1` [Example 28, 1N-[(2-methoxy-3-bromobenzoyl)]-4-N-[(2,4-difluorophenyl)sulfonyl]piperazine], the “% Inhibition of proliferation” value came out at 55.4 ± 14%.

Turning to `COc1cccc(C(=O)N2CCN(S(=O)(=O)c3ccc(F)cc3F)CC2)c1` [Example 31, 1N-[(3-methoxybenzoyl)]-4-N-[(2,4-difluorophenyl)sulfonyl]piperazine], the “% Inhibition of proliferation” value was determined as 25.3 ± 6.1%.

`COc1ccccc1C(=O)N1CCN(S(=O)(=O)c2ccc(F)cc2F)CC1` [Example 32, 1N-[(2-methoxybenzoyl)]-4-N-[(2,4-difluorophenyl)sulfonyl]piperazine]: the “% Inhibition of proliferation” value is 0%.

Regarding `O=C(c1ccsc1)N1CCN(S(=O)(=O)c2ccc(F)cc2F)CC1` [Example 36, 1N-[3-thiophenecarbonyl]-4-N-[(2,4-difluorophenyl)sulfonyl]piperazine], the “% Inhibition of proliferation” value is 40 ± 7.6%.

(Values after US20130012709A1, “NOVEL INHIBITORS OF STEAROYL-CoA-DESATURASE-1 AND THEIR USES” (CENTRE NATIONAL DE LA RECHERCHE SCIENTIFIQUE, priority 2009, published 2013).)
